In patent publication EP4583874B1, “MULTITARGET NUCLEAR RECEPTOR LIGANDS BASED ON 2-(4-(QUINOLIN-2-YLOXY)PHENOXY)PROPANOIC ACID AND 2-(4-(QUINOXALIN-2-YLOXY)PHENOXY)PROPANOIC ACID FOR THE TREATMENT OF METABOLIC AND LIVER DISEASES” (CHARLES UNIVERSITY, FACULTY OF PHARMACY IN HRADEC KRALOVE, priority 2022, dated 2024):

Tests used:
human PPARγ = molecular target: T1, human PPARγ (Homo sapiens, UniProt P37231); experiment: PPARγ luciferase reporter gene assay (pGAL4-PPARγ / pGL5-UAS 9x) in HepG2 cells; type: cell-based; conditions: HepG2, 24 h
T1 construct: DNA constructs encoding human LBD domains of human PPARα, PPARγ, of LXRα (pGAL4-PPARα, pGAL4-PPARγ, pGAL4-LXRα); expressed in transfected cells; host or cells: HepG2
T1 sequence (P37231 238-503 limits assumed): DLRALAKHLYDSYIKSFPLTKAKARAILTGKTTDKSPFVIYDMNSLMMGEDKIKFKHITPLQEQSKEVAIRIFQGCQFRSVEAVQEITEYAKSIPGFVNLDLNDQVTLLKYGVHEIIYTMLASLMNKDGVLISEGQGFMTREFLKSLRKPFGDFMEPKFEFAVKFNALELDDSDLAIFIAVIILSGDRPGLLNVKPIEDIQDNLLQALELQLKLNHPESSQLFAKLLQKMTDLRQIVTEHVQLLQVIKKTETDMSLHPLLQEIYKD

human FXR = molecular target: T2, human FXR (Homo sapiens, UniProt Q96RI1); experiment: FXR responsive luciferase reporter gene assay (FXRE-luc + human FXR expression construct) in HepG2 cells; type: cell-based; conditions: HepG2, 24 h
T2 construct: expressed in transfected cells; host or cells: HepG2
T2 sequence (Q96RI1 1-486): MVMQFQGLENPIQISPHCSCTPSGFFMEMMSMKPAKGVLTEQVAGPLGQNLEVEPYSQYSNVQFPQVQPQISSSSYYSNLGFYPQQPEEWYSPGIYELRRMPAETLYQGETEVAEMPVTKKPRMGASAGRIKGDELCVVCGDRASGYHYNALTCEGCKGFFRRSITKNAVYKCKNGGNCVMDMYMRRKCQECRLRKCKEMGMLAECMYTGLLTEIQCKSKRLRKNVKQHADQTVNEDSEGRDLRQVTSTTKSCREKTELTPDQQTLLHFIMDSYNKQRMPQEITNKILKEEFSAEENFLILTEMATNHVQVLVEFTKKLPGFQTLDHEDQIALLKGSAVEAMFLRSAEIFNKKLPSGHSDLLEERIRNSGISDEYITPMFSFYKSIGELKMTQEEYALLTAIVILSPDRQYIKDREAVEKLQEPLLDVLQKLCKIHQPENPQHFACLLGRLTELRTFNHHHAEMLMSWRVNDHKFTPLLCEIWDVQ
Text: (§1) In HepG2 cells, luciferase gene reporter assays have been performed with the transiently transfected reporter gene luciferase construct with the UAS yeast binding site interacting with GAL4 protein (pGL5-UAS 9x, Promega). DNA constructs encoding human LBD domains of human PPARα, PPARγ, of LXRα (pGAL4-PPARα, pGAL4-PPARγ, pGAL4-LXRα) have been cotransfected with the reporter construct. For FXR, FXRE-luc construct with FXR response elements upstream of Firefly luciferase has been used together with an expression construct for human FXR for HepG2 cells transfection. HepG2 cells were then treated with compounds of the invention for 24 h.

[1] = test system: 3D primary human hepatocyte spheroids; experiment: Gene expression in 3D primary human hepatocyte spheroids by RT-qPCR; type: cell-based; conditions: 3D spheroids of primary human hepatocytes (JEL donor), 72 hours
Text: After the interval, spheroid have been subjected to RNA isolation and RT-qPCR was used to analyse mRNA expression using specific TaqMan probes. Expression has been quantified using a reference gene (TBP) and delta-delta method. Data represents fold up or downregulation in mRNA expression for tested genes (column) related to the expression in vehicle-treated controls (equal to 1, white color).
Human hepatocellular carcinoma HepG2 cell line was purchased from the European Collection of Cell Cultures (ECACC, Salisbury, UK). Primary human hepatocytes (donor) have been purchased from BioIV, Royston, UK.
(§2) Expressions of NR target genes mRNAs in livers of mice or in 3D cultured (spheroids) primary human hepatocytes have been performed using TaqMan probes-based RT-qPCR after isolation of total RNA by Trizol® (ThermoFischer Scientific) reagent and reverse transcription synthesis of cDNA in Quant Studio cycler. Real-time qPCR TaqMan probes have been purchased prom ThermoFisher scientific (Cat. No. 4351372 and 433118). Delta-delta method and Gapdh or TATA-box binding protein (TBP) housekeeping genes were used for relative quantification. Data are expressed as fold up-/down-regulation compared to vehicle-treated samples/mice.

TGR5 = molecular target: T3, TGR5 (Homo sapiens, UniProt Q8TDU6); experiment: TGR5 luciferase reporter assay; type: cell-based; conditions: relative activation to LCA 10 µM (100%), negative value indicates inverse agonism
T3 sequence (Q8TDU6 1-330): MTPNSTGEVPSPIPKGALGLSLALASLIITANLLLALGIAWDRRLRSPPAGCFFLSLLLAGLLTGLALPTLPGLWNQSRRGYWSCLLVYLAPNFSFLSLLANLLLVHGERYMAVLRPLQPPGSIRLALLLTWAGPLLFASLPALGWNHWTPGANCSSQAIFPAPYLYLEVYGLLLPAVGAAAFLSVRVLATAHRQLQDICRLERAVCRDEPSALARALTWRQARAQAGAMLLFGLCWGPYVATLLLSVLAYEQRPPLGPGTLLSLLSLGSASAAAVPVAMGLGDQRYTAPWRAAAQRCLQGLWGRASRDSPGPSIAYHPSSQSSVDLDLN

human PPARα = molecular target: T4, human PPARα (Homo sapiens, UniProt Q07869); experiment: PPARα responsive luciferase reporter gene assay (pGAL4-PPARα / pGL5-UAS 9x) in HepG2 cells; type: cell-based; conditions: relative activation to fenofibrate 10 µM (100%), HepG2, 24 h, negative value indicates inverse agonism
T4 construct: DNA constructs encoding human LBD domains of human PPARα, PPARγ, of LXRα (pGAL4-PPARα, pGAL4-PPARγ, pGAL4-LXRα); expressed in transfected cells; host or cells: HepG2
T4 sequence (Q07869 239-466 limits assumed): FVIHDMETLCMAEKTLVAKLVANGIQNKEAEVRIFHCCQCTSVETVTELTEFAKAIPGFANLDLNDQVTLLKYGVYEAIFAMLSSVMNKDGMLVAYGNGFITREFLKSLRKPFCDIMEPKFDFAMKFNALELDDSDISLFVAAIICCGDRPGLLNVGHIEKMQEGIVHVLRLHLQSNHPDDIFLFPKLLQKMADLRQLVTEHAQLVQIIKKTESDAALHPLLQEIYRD
Text: Bezafibrate, GW7647 and WY14643 are known PPARα ligands. […] GW3965 is known high-affinity LXRα ligand. […]
as §1

C57BL/6J mice = experiment: Pilot study in mice, liver mRNA expression by RT-qPCR; type: in vivo; conditions: 3x 30 mg/kg p.o. gavage, liver 24 h after last application, vs vehicle
Protocol: Compounds 35 and 37 have been applied three times after 24 h (3x 30 mg/kg) via p.o. gavage to wild-type C57BL/6J mice. After 24 h from the last application, mice were sacrificed, and live samples collected on dry ice for total RNA isolation. RT-qPCR experiments have been performed with TaqMan probes and expression has been quantified using a reference gene (beta-actin and Gapdh) and delta-delta method. Data represents fold up or downregulation in mRNA expression for tested genes related to the expression in vehicle-treated control animals. * - statistically significant (p<0.05) up- or down- regulation in animals treated with tested compounds (n=4).
In the pilot study, compounds of the invention 37 and 35 were applied by per os probe (gavage) to male mice of age 15 weeks (n=4 per group) three times (3 x 30 mg/kg b.w.) in 1%PEG300/methylcellulose solution (compounds of EXAMPLE 37or 35). Livers were sampled 24 hours after application into liquid nitrogen for total RNA insolation and for qRT-PCR analysis (Quantstudio 7 HT Fast Real-Time PCR System).
as §2

human LXRα = molecular target: T5, human LXRα (Homo sapiens, UniProt Q13133); experiment: LXRα luciferase reporter gene assay, inhibition of activation by GW3965 (pGAL4-LXRα / pGL5-UAS 9x) in HepG2 cells; type: cell-based; conditions: HepG2, 24 h; read-out: LXRα antagonism
T5 construct: DNA constructs encoding human LBD domains of human PPARα, PPARγ, of LXRα (pGAL4-PPARα, pGAL4-PPARγ, pGAL4-LXRα); expressed in transfected cells; host or cells: HepG2
T5 sequence (Q13133 209-447 limits assumed): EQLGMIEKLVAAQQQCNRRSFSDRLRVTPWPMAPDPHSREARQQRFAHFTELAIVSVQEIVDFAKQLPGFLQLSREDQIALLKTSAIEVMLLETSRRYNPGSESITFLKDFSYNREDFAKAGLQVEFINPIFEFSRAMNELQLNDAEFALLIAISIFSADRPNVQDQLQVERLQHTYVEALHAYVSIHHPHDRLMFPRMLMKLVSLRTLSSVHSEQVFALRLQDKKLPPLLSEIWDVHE
Protocol: Bezafibrate, GW7647 and WY14643 are known PPARα ligands. […] GW3965 is known high-affinity LXRα ligand.
Inverse agonistic/antagonistic activities of tested compounds to LXRα receptor activated by the LXRα agonist GW3965(10 µM). […] Negative value indicates inverse agonism.
as §1

Q: `C[C@@H](Oc1ccc(Oc2ccc3ccc(Cl)cc3n2)cc1)C(=O)O` [compound 35, (R)-2-(4-((7-Chloroquinolin-2-yl)oxy)phenoxy)propanoic acid] was tested. Which Emax at 10 µM (human PPARγ) did it give?
A: 4%

Q: And the Emax at 10 µM (human FXR)?
A: 4%

Q: What about the “effect on some critical genes involved in fatty acid oxidation in comparison with fenofibrate” value [1] of the same molecule?
A: augmented effect

Q: What about the “genes involved in fatty acid catabolism” value ([1]; combined effect of obeticholic acid and TFCA) of the same molecule?
A: suitable upregulation

Q: What about the Emax at 10 µM (TGR5) of the same molecule?
A: 5%

Q: What about the Emax at 10 µM (human PPARα) of the same molecule?
A: 117%

Q: What about the “Cyp7a1 expression in the mouse liver” value (C57BL/6J mice) of the same molecule?
A: down-regulates

Q: What about the “Fasn gene expression in the mouse liver” value (C57BL/6J mice) of the same molecule?
A: down-regulate

Q: What about the “Pck1 gene expression in the mouse liver” value (C57BL/6J mice) of the same molecule?
A: down-regulate

Q: What about the “cholesterol efflux transporters Abcg5/8 expression in the mouse liver” value (C57BL/6J mice) of the same molecule?
A: down-regulates

Q: And the “key protein involved in fatty acid (beta) oxidation, mRNA expression in the mouse liver” value (C57BL/6J mice)?
A: up-regulate

Q: What about the inhibition at 10 µM (human LXRα) of the same molecule?
A: 63%

Q: `C[C@@H](Oc1ccc(Oc2ccc3c(Br)cccc3n2)cc1)C(=O)O` [compound 40, (R)-2-(4-((5-Bromoquinolin-2-yl)oxy)phenoxy)propanoic acid] was tested. Which Emax at 10 µM (human PPARγ) did it give?
A: 1%

Q: What about the Emax at 10 µM (human FXR) of the same molecule?
A: 89%

Q: And the Emax at 10 µM (TGR5)?
A: 16%

Q: What about the Emax at 10 µM (human PPARα) of the same molecule?
A: 0%

Q: And the inhibition at 10 µM (human LXRα)?
A: 48%
